Biological target: Indoleamine 2,3-dioxygenase 1 (Homo sapiens, UniProt P14902)
Assay: Inhibition of IDO1 (unknown origin)

Chain of Indoleamine 2,3-dioxygenase 1 (P14902 whole entry): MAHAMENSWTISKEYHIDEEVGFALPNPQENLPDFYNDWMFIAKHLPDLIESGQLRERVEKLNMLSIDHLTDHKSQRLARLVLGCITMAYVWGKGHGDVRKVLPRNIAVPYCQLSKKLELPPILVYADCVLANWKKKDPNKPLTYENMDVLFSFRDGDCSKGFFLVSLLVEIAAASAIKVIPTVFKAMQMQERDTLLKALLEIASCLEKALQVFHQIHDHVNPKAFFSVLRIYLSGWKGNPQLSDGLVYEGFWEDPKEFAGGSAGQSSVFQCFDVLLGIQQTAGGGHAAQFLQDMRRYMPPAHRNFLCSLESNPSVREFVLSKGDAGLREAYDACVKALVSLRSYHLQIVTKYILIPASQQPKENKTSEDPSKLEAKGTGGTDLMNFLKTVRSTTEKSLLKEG

IC50: 11 nM
Structure (SMILES): O[C@@H](C[C@H]1c2sccc2-c2cncn21)C1CCC(F)(F)CC1

Source: BindingDB's records for PubMed 34752953 (Zhengzhou University, 2022)
